The test system of series [1] is Rattus norvegicus. The note with it: for LOAEL: subchronic, duration: 90 days, clinical chemistry; for NOAEL: reproduction developmental.
The subject of series [2] is Pleurozium sp. The following applies: acute; duration: 72 hours; other.
Series [3] deals with Pontoscolex corethrurus. The following applies: chronic/long-term.
The test system of series [4] is Folsomia candida. The note with it: chronic/long-term; duration: 28 days; mortality.
The test system of series [5] is Hypoaspis aculeifer. The note with it: chronic/long-term; duration: 14 days; reproduction.
Series [6] deals with Coturnix japonica. The note with it: acute; oral; mortality.
The test system of series [7] is Colinus virginianus. The note with it: reproduction developmental.
Series [8] has as its system Apis mellifera. The following applies: acute, mortality.
Series [9] has as its system Canidae.
The subject of series [10] is Danio rerio. The note with it: chronic; reproduction.

As a reminder, the LOAEL is the lowest tested level that showed an adverse finding. For the molecule `Nc1ccc(O)c(Cl)c1` [3-Chloro-4-hydroxyaniline], the LOAEL in series [1] was found to be 10 mg/kg-day.
For the molecule `Nc1cccc(Cl)c1` [3-Chloroaniline], in series [1], the LOAEL was determined as 10 mg/kg-day. Besides, the NOEC worked out at 1 mg/L in series [2], 125 mg/kg in series [3] (reproduction), 9.5 mg/kg in series [4] and 50 mg/kg in series [5].
One may read the NOAEL as the highest tested level that showed no adverse finding. `CC(C)OC(=O)Nc1cccc(Cl)c1` [Chlorpropham]: the LD50 was above 2000 mg/kg-day in series [6]; 96.1 µg/piece in [8] (dermal); 505 µg/piece in series [8] (oral, unspecified); 4200 mg/kg-day in [1] (acute, oral, mortality). Moreover, the no-observed-adverse-effect level (NOAEL) in series [7] was determined as 94.7 mg/kg-day; in series [1] (body weight), 50 mg/kg-day; in [1] (immunology), 44.5 mg/kg-day; in series [9] (acute, oral, Beagle, mobility), 50 mg/kg-day; in series [9] (chronic, duration: 60 weeks, oral, diet, Beagle, organ weight), 5 mg/kg-day; in series [9] (short-term, duration: 28 days, Dog Other), 5 mg/kg-day. For the same molecule, the figures for the NOEC in series [10], in series [3] (growth) and in [4] were 0.32 mg/L, 30 mg/kg and 17.2 mg/kg, respectively.

These data come from EPA's ToxValDB 9.5 (doi:10.2903/j.efsa.2017.4903).
